Entries after “also recorded” stand apart in the source; their conditions may differ. Like-named read-outs stand apart in the source and are kept apart here.
Columns and labels:
GPR35 [1] = test: DMR desensitization / antagonism mode against GPR35 agonist-induced DMR in HT29 cells; format: cell-based, human
hERG channel = hERG channel (Homo sapiens, UniProt Q12809); test: Automated patch clamp recording of hERG tail current (IonWorks); conditions: hERG tail current ratio post/pre-compound, 50 uM
Chain of hERG channel (Q12809 whole entry): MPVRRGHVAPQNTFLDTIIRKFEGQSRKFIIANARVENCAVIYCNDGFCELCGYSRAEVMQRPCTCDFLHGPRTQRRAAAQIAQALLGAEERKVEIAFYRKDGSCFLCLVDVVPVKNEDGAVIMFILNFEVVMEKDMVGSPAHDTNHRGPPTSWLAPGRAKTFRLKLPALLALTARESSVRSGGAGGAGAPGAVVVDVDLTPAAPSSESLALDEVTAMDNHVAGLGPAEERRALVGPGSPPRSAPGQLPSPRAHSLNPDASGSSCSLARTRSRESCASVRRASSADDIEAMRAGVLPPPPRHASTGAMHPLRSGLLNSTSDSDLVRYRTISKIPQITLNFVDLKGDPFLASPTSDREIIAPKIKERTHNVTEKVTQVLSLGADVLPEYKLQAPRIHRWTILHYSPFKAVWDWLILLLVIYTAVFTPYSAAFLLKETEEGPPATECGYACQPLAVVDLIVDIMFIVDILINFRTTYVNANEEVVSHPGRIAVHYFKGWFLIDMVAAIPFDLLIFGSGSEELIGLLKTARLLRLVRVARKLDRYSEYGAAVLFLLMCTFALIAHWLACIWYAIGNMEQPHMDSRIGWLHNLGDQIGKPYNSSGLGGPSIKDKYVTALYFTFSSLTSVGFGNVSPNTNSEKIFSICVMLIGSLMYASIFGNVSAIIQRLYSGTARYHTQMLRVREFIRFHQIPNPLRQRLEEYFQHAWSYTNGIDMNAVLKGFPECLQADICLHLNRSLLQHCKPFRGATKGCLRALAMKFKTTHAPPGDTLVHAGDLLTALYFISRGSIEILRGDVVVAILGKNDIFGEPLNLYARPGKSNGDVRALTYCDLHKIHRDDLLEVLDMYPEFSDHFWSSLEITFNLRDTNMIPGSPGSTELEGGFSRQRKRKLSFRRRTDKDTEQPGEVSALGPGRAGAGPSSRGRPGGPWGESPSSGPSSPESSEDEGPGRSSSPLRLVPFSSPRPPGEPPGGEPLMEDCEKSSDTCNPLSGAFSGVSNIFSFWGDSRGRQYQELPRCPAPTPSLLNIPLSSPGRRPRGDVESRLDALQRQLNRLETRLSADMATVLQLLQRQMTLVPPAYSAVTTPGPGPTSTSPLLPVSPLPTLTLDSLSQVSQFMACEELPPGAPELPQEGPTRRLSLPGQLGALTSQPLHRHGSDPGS

GPR35 [2] = molecular target: T1, GPR35 (Homo sapiens, UniProt Q9HC97); test: Ca2+ mobilization assay (Fluo-4) in HEK-GPR35-Gqo5 cells; format: cell-based; conditions: for Ca2+ moblization (HEK-GPR35-Gqo5): HEK293 cells co-expressing GPR35 and Gqo5, Fluo-4, compounds 10 μM
T1 construct: myc; expressed in transfected cells; host or cells: HEK293, transient co-transfection (Lipofectamine LTX)
T1 sequence (Q9HC97 whole entry): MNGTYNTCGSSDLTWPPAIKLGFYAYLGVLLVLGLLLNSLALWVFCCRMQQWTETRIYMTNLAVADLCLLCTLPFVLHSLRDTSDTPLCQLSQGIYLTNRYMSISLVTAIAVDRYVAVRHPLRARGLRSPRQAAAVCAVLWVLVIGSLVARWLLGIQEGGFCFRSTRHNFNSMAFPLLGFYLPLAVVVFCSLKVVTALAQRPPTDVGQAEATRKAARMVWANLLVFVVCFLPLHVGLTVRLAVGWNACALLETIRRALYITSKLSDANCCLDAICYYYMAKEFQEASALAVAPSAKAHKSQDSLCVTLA

[3] = HT29 cells pretreated with compound, then GPR35 agonist
[4] = HT29, zaprinast 400 nM, U73122, cytochalasin D, Y27632 10 micromolar, CTX 1 microgram/ml, PTX 100 nanogram/ml

Chain of GPR35 (Q9HC97 whole entry): as above

N#CC(C#N)=C(N)/C(C#N)=C/c1ccc(O)cc1 [AG112]
Desenstization to GPR35 agonist (GPR35 [1]; [3]): desenstized

N#CC(C#N)=Cc1ccc([N+](=O)[O-])c(O)c1 [AG126]
Desenstization to GPR35 agonist (GPR35 [1]; [3]): desenstized
Electrophysiology (HEK-hERG) (hERG channel): inactive

N#CC(=Cc1ccc2[nH]ccc2c1)C(N)=C(C#N)C#N [AG370]
Desenstization to GPR35 agonist (GPR35 [1]; [3]): desenstized
Electrophysiology (HEK-hERG) (hERG channel): inactive

N#C/C(=C/c1ccc(O)c(O)c1)C(=O)NCc1ccccc1 [AG490]
Desenstization to GPR35 agonist (GPR35 [1]; [3]): desenstized

COc1cc(/C=C(\C#N)C(N)=O)cc(CSc2nc3ccccc3s2)c1O [AG825]
Desenstization to GPR35 agonist (GPR35 [1]; [3]): desenstized

CC(C)(C)c1cc(C=C(C#N)C#N)cc(Br)c1O [AG1024]
Desenstization to GPR35 agonist (GPR35 [1]; [3]): desenstized

N#CC(C#N)=Cc1cc(O)c(O)c([N+](=O)[O-])c1 [AG1288]
Desenstization to GPR35 agonist (GPR35 [1]; [3]): desenstized

CCCCc1ccc(C2(C)OC(=C(C#N)C#N)C(C#N)=C2C)cc1 (stereo not drawn) [Compound 01, 2-dicyanomethylene-3-cyano-4,5-dimethyl-5-[4′-n-butylphenyl]-2,5-dihydrofuran]
Desenstization to GPR35 agonist (GPR35 [1]; [3]): desenstized
Ca2+ moblization (HEK-GPR35-Gqo5) (GPR35 [2]): inactive
Electrophysiology (HEK-hERG) (hERG channel): inactive

CC1=C(C#N)C(=C(C#N)C#N)OC1(C)c1ccc(F)cc1F (stereo not drawn) [Compound 02, 2-dicyanomethylene-3-cyano-4,5-dimethyl-5-[2′,4′-difluorophenyl]-2,5-dihydrofuran]
Desenstization to GPR35 agonist (GPR35 [1]; [3]): desenstized
Ca2+ moblization (HEK-GPR35-Gqo5) (GPR35 [2]): active
Electrophysiology (HEK-hERG) (hERG channel): inactive

CC1=C(C#N)C(=C(C#N)C#N)OC12CCCCC2 [Compound 03, 2-dicyanomethylene-3-cyano-4-methyl-5-spiro-cyclohexyl-2,5-dihydrofuran]
Desenstization to GPR35 agonist (GPR35 [1]; [3]): desenstized
Ca2+ moblization (HEK-GPR35-Gqo5) (GPR35 [2]): inactive
Electrophysiology (HEK-hERG) (hERG channel): inactive

CC1=C(C#N)C(=C(C#N)C#N)OC1(c1ccccc1)C(F)(F)F (stereo not drawn) [Compound 04, 2-dicyanomethylene-3-cyano-4-methyl-5-phenyl-5-perfluoromethyl-2,5-dihydrofuran]
Desenstization to GPR35 agonist (GPR35 [1]; [3]): desenstized
Ca2+ moblization (HEK-GPR35-Gqo5) (GPR35 [2]): active
Electrophysiology (HEK-hERG) (hERG channel): activator

CC1=C(C#N)C(=C(C#N)C#N)OC12c1ccccc1-c1ccccc12 [Compound 05, 2-dicyanomethylene-3-cyano-4-methyl-5-spiro-fluorenylidine-2,5-dihydrofuran]
Desenstization to GPR35 agonist (GPR35 [1]; [3]): desenstized
Ca2+ moblization (HEK-GPR35-Gqo5) (GPR35 [2]): inactive
Electrophysiology (HEK-hERG) (hERG channel): inactive

CC1=C(C#N)C(=C(C#N)C#N)OC1(C)c1ccc(Cl)c(Cl)c1Cl (stereo not drawn) [Compound 06, 2-dicyanomethylene-3-cyano-4,5-dimethyl-5-[2′,3′,4′-trichlorophenyl]-2,5-dihydrofuran]
Desenstization to GPR35 agonist (GPR35 [1]; [3]): desenstized
Ca2+ moblization (HEK-GPR35-Gqo5) (GPR35 [2]): inactive
Electrophysiology (HEK-hERG) (hERG channel): inactive

CC1=C(C#N)C(=C(C#N)C#N)OC1(C)c1ccc(Cl)c(Cl)c1 (stereo not drawn) [Compound 07, 2-dicyanomethylene-3-cyano-4,5-dimethyl-5-[3′,4′-dichlorophenyl]-2,5-dihydrofuran]
Desenstization to GPR35 agonist (GPR35 [1]; [3]): desenstized
Ca2+ moblization (HEK-GPR35-Gqo5) (GPR35 [2]): active
Electrophysiology (HEK-hERG) (hERG channel): inactive

CC1=C(C#N)C(=C(C#N)C(N)=C(C#N)C#N)OC1(C)C [Compound 08, 2-cyano-2-(1-amino-2,2-dicyanovinyl)methylene-3-cyano-4,5,5-trimethyl-2,5-dihydrofuran]
Desenstization to GPR35 agonist (GPR35 [1]; [3]): desenstized
Ca2+ moblization (HEK-GPR35-Gqo5) (GPR35 [2]): active
Electrophysiology (HEK-hERG) (hERG channel): inactive

CC1=C(C#N)C(=C(C#N)C#N)OC1(C)c1c(F)c(F)c(F)c(F)c1F (stereo not drawn) [Compound 09, 2-dicyanomethylene-3-cyano-4,5-dimethyl-5-[2′3′4′5′6′-pentafluorophenyl]-2,5-dihydrofuran]
Desenstization to GPR35 agonist (GPR35 [1]; [3]): desenstized
Ca2+ moblization (HEK-GPR35-Gqo5) (GPR35 [2]): active
Electrophysiology (HEK-hERG) (hERG channel): inactive

CC1=C(C#N)C(=C(C#N)C#N)OC1(C)C [Compound 10, 2-dicyanomethylene-3-cyano-4,5,5-trimethyl-2,5-dihydrofuran]
Desenstization to GPR35 agonist (GPR35 [1]; [3]): desenstized
Ca2+ moblization (HEK-GPR35-Gqo5) (GPR35 [2]): active
Electrophysiology (HEK-hERG) (hERG channel): inactive

O=C(O)c1cc2sccc2s1 [Compound 11, thieno[3,2-b]thiophene-2-carboxylic acid]
Desenstization to GPR35 agonist (GPR35 [1]; [3]): desenstized
Ca2+ moblization (HEK-GPR35-Gqo5) (GPR35 [2]): inactive
Electrophysiology (HEK-hERG) (hERG channel): inactive

Cc1c(C(=O)O)sc2ccsc12 [Compound 12, 3-methyl-thieno[3,2-b]thiophene-2-carboxylic acid]
Desenstization to GPR35 agonist (GPR35 [1]; [3]): desenstized
Ca2+ moblization (HEK-GPR35-Gqo5) (GPR35 [2]): active
Electrophysiology (HEK-hERG) (hERG channel): inactive

CCCCCCc1csc2cc(C(=O)O)sc12 [Compound 14, 6-hexyl-thieno[3,2-b]thiophene-2-carboxylic acid]
Desenstization to GPR35 agonist (GPR35 [1]; [3]): desenstized
Ca2+ moblization (HEK-GPR35-Gqo5) (GPR35 [2]): active
Electrophysiology (HEK-hERG) (hERG channel): blocker

CCCCCCCCCCC(=O)c1sc2c(Br)csc2c1Br [Compound 15, 3,6-dibromo-thieno[3,2-b]thiophene-2-undecanone]
Electrophysiology (HEK-hERG) (hERG channel): inactive

CCCCCCCCCCCc1c(C(=O)O)sc2c(Br)csc12 [Compound 16, 3-n-undecyl-6-bromo-thieno[3,2-b]thiophene-2-carboxylic acid]
Desenstization to GPR35 agonist (GPR35 [1]): desenstized
Electrophysiology (HEK-hERG) (hERG channel): inactive

CCCCCCCCCCCCCc1c(C(=O)O)sc2c(Br)csc12 [Compound 17, 3-n-tridecyl-6-bromo-thieno[3,2-b]thiophene-2-carboxylic acid]
Desenstization to GPR35 agonist (GPR35 [1]): desenstized
Electrophysiology (HEK-hERG) (hERG channel): activator

CCCCCCCCCCc1c(C(=O)O)sc2c(Br)csc12 [Compound 18, 3-n-decyl-6-bromo-thieno[3,2-b]thiophene-2-carboxylic acid]
Desenstization to GPR35 agonist (GPR35 [1]; [3]): desenstized
Electrophysiology (HEK-hERG) (hERG channel): activator

CCCCCCCCCCCCCCCc1c(C(=O)O)sc2c(Br)csc12 [Compound 19, 3-n-pentadecyl-6-bromo-thieno[3,2-b]thiophene-2-carboxylic acid]
Desenstization to GPR35 agonist (GPR35 [1]; [3]): desenstized
Electrophysiology (HEK-hERG) (hERG channel): activator

CCCCCCCCc1c(C(=O)O)sc2c(Br)csc12 [Compound 21, 3-n-octyl-6-bromo-thieno[3,2-b]thiophene-2-carboxylic acid]
Desenstization to GPR35 agonist (GPR35 [1]; [3]): desenstized
Ca2+ moblization (HEK-GPR35-Gqo5) (GPR35 [2]): active
Electrophysiology (HEK-hERG) (hERG channel): activator

Cc1csc2c1sc1cc(C(=O)O)sc12 [Compound 22, 5-methyl-dithieno[3,2-b:2′,3′-d]thiophene-2-carboxylic acid]
Desenstization to GPR35 agonist (GPR35 [1]; [3]): desenstized
Ca2+ moblization (HEK-GPR35-Gqo5) (GPR35 [2]): inactive
Electrophysiology (HEK-hERG) (hERG channel): inactive

CCOC(=O)c1cc2sc3cc(C(=O)OCC)sc3c2s1 [Compound 23, diethyl dithieno[3,2-b:2′,3′-d]thiophene-2,6-dicarboxylate]
Desenstization to GPR35 agonist (GPR35 [1]; [3]): desenstized
Ca2+ moblization (HEK-GPR35-Gqo5) (GPR35 [2]): inactive
Electrophysiology (HEK-hERG) (hERG channel): inactive

OCCN(CCO)c1ccc(C=Cc2cccs2)cc1 [Compound 24, N,N-bis(2-hydroxyethyl)-4-[2-(thiophene-2-yl)vinyl]aniline]
Desenstization to GPR35 agonist (GPR35 [1]; [3]): inactive
Ca2+ moblization (HEK-GPR35-Gqo5) (GPR35 [2]): inactive
Electrophysiology (HEK-hERG) (hERG channel): inactive

COc1ccc2c(c1)CC[C@@H]1[C@@H]2CC[C@]2(C)[C@@H](NCCCCCCN3C(=O)C=CC3=O)CC[C@@H]12 [Compound U73122, U73122]
effect of pathway agent pretreatment on the zaprinast DMR signal (GPR35 [1]; [4]): insensitive
effect of pathway agent on the 6-bromo-3-methylthieno[3,2-b]thiophene-2-carboxylic acid DMR (GPR35 [1]; HT29 cells): insensitive

C[C@@H](N)[C@H]1CC[C@H](C(=O)Nc2ccncc2)CC1 [Compound Y27632, Y27632]
effect of pathway agent pretreatment on the zaprinast DMR signal (GPR35 [1]; [4]): partially attenuated
effect of pathway agent on the 6-bromo-3-methylthieno[3,2-b]thiophene-2-carboxylic acid DMR (GPR35 [1]; HT29 cells): partially attenuated

O=C(O)Cc1ccccc1Nc1c(Cl)cccc1Cl [Diclofenac]
Desenstization to GPR35 agonist (GPR35 [1]; [3]): desenstized
Ca2+ moblization (HEK-GPR35-Gqo5) (GPR35 [2]): inactive

CCN(CC)C(=O)/C(C#N)=C/c1cc(O)c(O)c([N+](=O)[O-])c1 [Entacapone]
Electrophysiology (HEK-hERG) (hERG channel): inactive

NS(=O)(=O)c1cc(C(=O)O)c(NCc2ccco2)cc1Cl [Furosemdie]
Desenstization to GPR35 agonist (GPR35 [1]; [3]): desenstized
Ca2+ moblization (HEK-GPR35-Gqo5) (GPR35 [2]): active
Ca2+ mobilization signal in cells co-expressing GPR35 and Gqo5 (GPR35 [2]; engineered HEK293, 10 μM): active

O=C(O)c1ccccc1Nc1ccccc1 [N-phenylanthranilic]
Desenstization to GPR35 agonist (GPR35 [1]; [3]): desenstized

CCNc1nc(C)nc2c1cnn2-c1ccc(C)cc1 [NSC1619]
Desenstization to GPR35 agonist (GPR35 [1]; [3]): inactive
Electrophysiology (HEK-hERG) (hERG channel): activator

O=C(O)c1ccccc1Nc1ccc(CCc2ccc(Cl)c(Cl)c2)cc1 [PD-118057]
Desenstization to GPR35 agonist (GPR35 [1]; [3]): desenstized
Electrophysiology (HEK-hERG) (hERG channel): activator

N#CC(C#N)=Cc1ccc(O)c(O)c1 [Tyrphostin 23]
Desenstization to GPR35 agonist (GPR35 [1]; [3]): desenstized

N#CC(C#N)=Cc1cc(O)c(O)c(O)c1 [Tyrphostin 25]
Desenstization to GPR35 agonist (GPR35 [1]; [3]): desenstized
Electrophysiology (HEK-hERG) (hERG channel): inactive

C=C1[C@@H](C)[C@H]2[C@H](Cc3ccccc3)NC(=O)[C@]23[C@H](OC(C)=O)/C=C/[C@@](C)(O)C(=O)[C@@H](C)C/C=C/[C@H]3[C@@H]1O [cytochalasin D]
effect of pathway agent pretreatment on the zaprinast DMR signal (GPR35 [1]; [4]): completely attenuated; also recorded: completely block
effect of pathway agent on the 6-bromo-3-methylthieno[3,2-b]thiophene-2-carboxylic acid DMR (GPR35 [1]; HT29 cells): blocked

Pertussis toxin
effect of pathway agent pretreatment on the zaprinast DMR signal (GPR35 [1]; [4]): insensitive
effect of pathway agent on the 6-bromo-3-methylthieno[3,2-b]thiophene-2-carboxylic acid DMR (GPR35 [1]; HT29 cells): insensitive

cholera toxin
effect of pathway agent on the 6-bromo-3-methylthieno[3,2-b]thiophene-2-carboxylic acid DMR (GPR35 [1]): insensitive
effect of pathway agent pretreatment on the zaprinast DMR signal (GPR35 [1]): insensitive

Reference: patent US20120022116A1, “COMPOSITIONS AND METHODS FOR THE TREATMENT OF PATHOLOGICAL CONDITION(S) RELATED TO GPR35 AND/OR GPR35-HERG COMPLEX” (priority 2010, published 2012)
